Measured values as given in patent US20240270762A1, “PENICILLIN-BINDING PROTEIN INHIBITORS” (priority 2021, published 2024).
Values after ≈ are worked out from the molar mass of the structure shown.

How the values were obtained:
[1] = tested on: N. gonorrhoeae FA1090; test: Liquid broth MIC in Fastidious broth; conditions: Neisseria gonorrhoeae, FA1090, read-out: Minimum Inhibitory Concentration, FA 1090
[2] = tested on: N. gonorrhoeae WHO Q; test: Liquid broth MIC in Fastidious broth; conditions: Neisseria gonorrhoeae, read-out: Minimum Inhibitory Concentration, WHO Q
[3] = tested on: N. gonorrhoeae WHO M; test: Liquid broth MIC in Fastidious broth; conditions: Neisseria gonorrhoeae, read-out: Minimum Inhibitory Concentration, WHO M
[4] = tested on: N. gonorrhoeae WHO X; test: Liquid broth MIC in Fastidious broth; conditions: Neisseria gonorrhoeae, read-out: Minimum Inhibitory Concentration, WHO X
[5] = tested on: N. gonorrhoeae WHO G; test: Liquid broth MIC in Fastidious broth; conditions: Neisseria gonorrhoeae, read-out: Minimum Inhibitory Concentration, WHO G
[6] = target: T1, PBP1a from Acinetobacter baumannii (ATCC 19606) (Acinetobacter baumannii, UniProt A0ABX6CK30); test: Bocillin-FL fluorescence polarization competition binding, A. baumannii PBP1a; conditions: fluorescence polarization competition binding assay using Bocillin-FL; read-out: A. baumannii PBP1a Potency
T1 sequence (A0ABX6CK30 1-851): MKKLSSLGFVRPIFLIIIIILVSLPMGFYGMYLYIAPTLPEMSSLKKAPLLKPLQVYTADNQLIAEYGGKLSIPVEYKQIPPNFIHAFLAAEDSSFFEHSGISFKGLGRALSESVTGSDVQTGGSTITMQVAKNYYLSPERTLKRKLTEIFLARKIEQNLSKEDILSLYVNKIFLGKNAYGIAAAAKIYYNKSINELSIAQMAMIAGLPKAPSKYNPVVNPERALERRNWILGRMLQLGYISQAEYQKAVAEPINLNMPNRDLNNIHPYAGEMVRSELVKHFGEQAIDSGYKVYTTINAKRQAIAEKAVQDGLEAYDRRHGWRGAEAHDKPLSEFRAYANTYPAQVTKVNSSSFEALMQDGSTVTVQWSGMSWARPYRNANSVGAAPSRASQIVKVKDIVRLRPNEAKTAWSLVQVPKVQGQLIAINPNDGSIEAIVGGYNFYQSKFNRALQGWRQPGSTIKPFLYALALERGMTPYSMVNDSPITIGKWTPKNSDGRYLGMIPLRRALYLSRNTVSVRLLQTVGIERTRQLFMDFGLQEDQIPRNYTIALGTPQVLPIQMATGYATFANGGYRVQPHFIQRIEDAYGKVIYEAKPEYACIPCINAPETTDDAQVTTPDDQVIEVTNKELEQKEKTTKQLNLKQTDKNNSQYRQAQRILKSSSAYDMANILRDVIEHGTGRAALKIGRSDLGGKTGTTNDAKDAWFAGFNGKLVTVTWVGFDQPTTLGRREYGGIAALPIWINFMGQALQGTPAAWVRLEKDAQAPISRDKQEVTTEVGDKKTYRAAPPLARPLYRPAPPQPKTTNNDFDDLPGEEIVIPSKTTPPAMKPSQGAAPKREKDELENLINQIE
Outline: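 Purified PBPs pre-incubated with inhibitor (E. coli PBP3 1.5 μM, 30 min; P. aeruginosa PBP3 0.75 μM, A. baumannii PBP1a 1 μM and PBP3 0.2 μM, 15 min), then Bocillin-FL 0.1 μM (0.05 μM for PBP1a) added; FP read up to 60 min. EC50 = concentration halving bound Bocillin-FL.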

[7] = tested on: N. gonorrhoeae CDC-0197; test: Liquid broth MIC in Fastidious broth; conditions: Neisseria gonorrhoeae, CDC0197, read-out: Minimum Inhibitory Concentration, CDC-0197
[8] = tested on: N. gonorrhoeae MS11; test: Liquid broth MIC in Fastidious broth; conditions: Neisseria gonorrhoeae, MS11, read-out: Minimum Inhibitory Concentration, MS11

Structure (SMILES): O=C(NCCCN1CCN(C(=O)NC(C(=O)N[C@H]2Cc3ccc(F)c(C(=O)O)c3OB2O)c2cc(F)c(O)c(O)c2Cl)C1=O)c1ccc(O)cc1 (stereo partly drawn) [Example 280, (3R)-3-(2-(2-chloro-5-fluoro-3,4-dihydroxyphenyl)-2-(3-(3-(4-hydroxybenzamido)propyl)-2-oxoimidazolidine-1-carboxamido)acetamido)-7-fluoro-2-hydroxy-3,4-dihydro-2H-benzo[e][1,2]oxaborinine-8-carboxylic acid]
- MIC [1]: 4 to 8 µg/mL (≈ 5.47 to 10.9 µM)
- MIC [2]: > 64 µg/mL
- MIC [3]: 16 to 32 µg/mL (≈ 21.9 to 43.7 µM)
- MIC [4]: > 64 µg/mL
- MIC [5]: 16 to 32 µg/mL (≈ 21.9 to 43.7 µM)
- IC50 [6]: > 250 µM
- MIC [7]: > 64 µg/mL
- MIC [8]: 16 to 32 µg/mL (≈ 21.9 to 43.7 µM)

Structure (SMILES): O=C(NCCCN1CCN(C(=O)NC(C(=O)N[C@H]2Cc3ccc(F)c(C(=O)O)c3OB2O)c2cc(F)c(O)c(O)c2Cl)C1=O)c1cccnc1 (stereo partly drawn) [Example 281, (3R)-3-(2-(2-chloro-5-fluoro-3,4-dihydroxyphenyl)-2-(3-(3-(nicotinamido)propyl)-2-oxoimidazolidine-1-carboxamido)acetamido)-7-fluoro-2-hydroxy-3,4-dihydro-2H-benzo[e][1,2]oxaborinine-8-carboxylic acid]
- MIC [1]: 4 to 8 µg/mL (≈ 5.58 to 11.2 µM)
- MIC [2]: > 64 µg/mL
- MIC [3]: 16 to 32 µg/mL (≈ 22.3 to 44.6 µM)
- MIC [4]: > 64 µg/mL
- MIC [5]: 16 to 32 µg/mL (≈ 22.3 to 44.6 µM)
- IC50 [6]: > 250 µM
- MIC [7]: > 64 µg/mL
- MIC [8]: > 64 µg/mL

Structure (SMILES): O=C(NCCCN1CCN(C(=O)N[C@H](C(=O)N[C@H]2Cc3ccc(F)c(C(=O)O)c3OB2O)c2cc(F)c(O)c(O)c2Cl)C1=O)Nc1ccc(O)cc1 [Example 283, (R)-3-((S)-2-(2-chloro-5-fluoro-3,4-dihydroxyphenyl)-2-(3-(3-(3-(4-hydroxyphenyl)ureido)propyl)-2-oxoimidazolidine-1-carboxamido)acetamido)-7-fluoro-2-hydroxy-3,4-dihydro-2H-benzo[e][1,2]oxaborinine-8-carboxylic acid]
- MIC [1]: > 64 µg/mL
- MIC [2]: > 64 µg/mL
- MIC [3]: > 64 µg/mL
- MIC [4]: > 64 µg/mL
- MIC [5]: > 64 µg/mL
- IC50 [6]: > 250 µM
- MIC [7]: > 64 µg/mL
- MIC [8]: > 64 µg/mL

Structure (SMILES): O=C(NCCCN1CCN(C(=O)N[C@@H](C(=O)N[C@H]2Cc3ccc(F)c(C(=O)O)c3OB2O)c2cc(F)c(O)c(O)c2Cl)C1=O)Nc1ccc(O)cc1 [Example 284, (R)-3-((R)-2-(2-chloro-5-fluoro-3,4-dihydroxyphenyl)-2-(3-(3-(3-(4-hydroxyphenyl)ureido)propyl)-2-oxoimidazolidine-1-carboxamido)acetamido)-7-fluoro-2-hydroxy-3,4-dihydro-2H-benzo[e][1,2]oxaborinine-8-carboxylic acid]
- MIC [1]: 1 to 2 µg/mL (≈ 1.34 to 2.68 µM)
- MIC [2]: 4 to 8 µg/mL (≈ 5.36 to 10.7 µM)
- MIC [3]: 4 to 8 µg/mL (≈ 5.36 to 10.7 µM)
- MIC [4]: > 64 µg/mL
- MIC [5]: 4 to 8 µg/mL (≈ 5.36 to 10.7 µM)
- IC50 [6]: > 250 µM
- MIC [7]: 16 to 32 µg/mL (≈ 21.4 to 42.8 µM)
- MIC [8]: 4 to 8 µg/mL (≈ 5.36 to 10.7 µM)

Structure (SMILES): O=C(NCCCN1CCN(C(=O)NC(C(=O)N[C@H]2Cc3ccc(F)c(C(=O)O)c3OB2O)c2cc(F)c(O)c(O)c2Cl)C1=O)Nc1ccncc1 (stereo partly drawn) [Example 285, (3R)-3-(2-(2-chloro-5-fluoro-3,4-dihydroxyphenyl)-2-(2-oxo-3-(3-(3-(pyridin-4-yl)ureido)propyl)imidazolidine-1-carboxamido)acetamido)-7-fluoro-2-hydroxy-3,4-dihydro-2H-benzo[e][1,2]oxaborinine-8-carboxylic acid]
- MIC [1]: 4 to 8 µg/mL (≈ 5.47 to 10.9 µM)
- MIC [2]: > 64 µg/mL
- MIC [3]: > 64 µg/mL
- MIC [4]: > 64 µg/mL
- MIC [5]: > 64 µg/mL
- IC50 [6]: > 250 µM
- MIC [7]: > 64 µg/mL
- MIC [8]: > 64 µg/mL

Structure (SMILES): O=C(NCCS(=O)(=O)N1CCN(C(=O)N[C@H](C(=O)N[C@H]2Cc3ccc(F)c(C(=O)O)c3OB2O)c2cc(F)c(O)c(O)c2Cl)C1=O)c1ccc(O)cc1 [Example 286, (R)-3-((S)-2-(2-chloro-5-fluoro-3,4-dihydroxyphenyl)-2-(3-((2-(4-hydroxybenzamido)ethyl)sulfonyl)-2-oxoimidazolidine-1-carboxamido)acetamido)-7-fluoro-2-hydroxy-3,4-dihydro-2H-benzo[e][1,2]oxaborinine-8-carboxylic acid]
- MIC [1]: > 64 µg/mL
- MIC [2]: > 64 µg/mL
- MIC [3]: > 64 µg/mL
- MIC [4]: > 64 µg/mL
- MIC [5]: > 64 µg/mL
- IC50 [6]: > 250 µM
- MIC [7]: > 64 µg/mL
- MIC [8]: > 64 µg/mL

Structure (SMILES): O=C(NCCS(=O)(=O)N1CCN(C(=O)N[C@@H](C(=O)N[C@H]2Cc3ccc(F)c(C(=O)O)c3OB2O)c2cc(F)c(O)c(O)c2Cl)C1=O)c1ccc(O)cc1 [Example 287, (R)-3-((R)-2-(2-chloro-5-fluoro-3,4-dihydroxyphenyl)-2-(3-((2-(4-hydroxybenzamido)ethyl)sulfonyl)-2-oxoimidazolidine-1-carboxamido)acetamido)-7-fluoro-2-hydroxy-3,4-dihydro-2H-benzo[e][1,2]oxaborinine-8-carboxylic acid]
- MIC [1]: 1 to 2 µg/mL (≈ 1.28 to 2.56 µM)
- MIC [2]: 4 to 8 µg/mL (≈ 5.12 to 10.2 µM)
- MIC [3]: 4 to 8 µg/mL (≈ 5.12 to 10.2 µM)
- MIC [4]: > 64 µg/mL
- MIC [5]: 4 to 8 µg/mL (≈ 5.12 to 10.2 µM)
- IC50 [6]: > 250 µM
- MIC [7]: 16 to 32 µg/mL (≈ 20.5 to 40.9 µM)
- MIC [8]: 4 to 8 µg/mL (≈ 5.12 to 10.2 µM)

Structure (SMILES): O=C(NCCS(=O)(=O)N1CCN(C(=O)NC(C(=O)N[C@H]2Cc3ccc(F)c(C(=O)O)c3OB2O)c2cc(F)c(O)c(O)c2Cl)C1=O)c1ccncc1 (stereo partly drawn) [Example 288, (3R)-3-(2-(2-chloro-5-fluoro-3,4-dihydroxyphenyl)-2-(3-((2-(isonicotinamido)ethyl)sulfonyl)-2-oxoimidazolidine-1-carboxamido)acetamido)-7-fluoro-2-hydroxy-3,4-dihydro-2H-benzo[e][1,2]oxaborinine-8-carboxylic acid]
- MIC [1]: 1 to 2 µg/mL (≈ 1.3 to 2.61 µM)
- MIC [2]: 16 to 32 µg/mL (≈ 20.9 to 41.7 µM)
- MIC [3]: 4 to 8 µg/mL (≈ 5.22 to 10.4 µM)
- MIC [4]: > 64 µg/mL
- MIC [5]: 4 to 8 µg/mL (≈ 5.22 to 10.4 µM)
- IC50 [6]: > 250 µM
- MIC [7]: 16 to 32 µg/mL (≈ 20.9 to 41.7 µM)
- MIC [8]: 4 to 8 µg/mL (≈ 5.22 to 10.4 µM)

Structure (SMILES): O=C(NCCS(=O)(=O)N1CCN(C(=O)NC(C(=O)N[C@H]2Cc3ccc(F)c(C(=O)O)c3OB2O)c2cc(F)c(O)c(O)c2Cl)C1=O)Nc1ccc(O)cc1 (stereo partly drawn) [Example 289, (3R)-3-(2-(2-chloro-5-fluoro-3,4-dihydroxyphenyl)-2-(3-((2-(3-(4-hydroxyphenyl)ureido)ethyl)sulfonyl)-2-oxoimidazolidine-1-carboxamido)acetamido)-7-fluoro-2-hydroxy-3,4-dihydro-2H-benzo[e][1,2]oxaborinine-8-carboxylic acid]
- MIC [1]: 1 to 2 µg/mL (≈ 1.25 to 2.51 µM)
- MIC [2]: 4 to 8 µg/mL (≈ 5.02 to 10 µM)
- MIC [3]: 4 to 8 µg/mL (≈ 5.02 to 10 µM)
- MIC [4]: > 64 µg/mL
- MIC [5]: 4 to 8 µg/mL (≈ 5.02 to 10 µM)
- IC50 [6]: > 250 µM
- MIC [7]: 16 to 32 µg/mL (≈ 20.1 to 40.2 µM)
- MIC [8]: 4 to 8 µg/mL (≈ 5.02 to 10 µM)

Structure (SMILES): O=C(NCCS(=O)(=O)N1CCN(C(=O)N[C@@H](C(=O)N[C@H]2Cc3ccc(F)c(C(=O)O)c3OB2O)c2cc(F)c(O)c(O)c2Cl)C1=O)Nc1ccncc1 [Example 290, (R)-3-((R)-2-(2-chloro-5-fluoro-3,4-dihydroxyphenyl)-2-(2-oxo-3-((2-(3-(pyridin-4-yl)ureido)ethyl)sulfonyl)imidazolidine-1-carboxamido)acetamido)-7-fluoro-2-hydroxy-3,4-dihydro-2H-benzo[e][1,2]oxaborinine-8-carboxylic acid]
- MIC [1]: 1 to 2 µg/mL (≈ 1.28 to 2.56 µM)
- MIC [2]: 16 to 32 µg/mL (≈ 20.5 to 40.9 µM)
- MIC [3]: 16 to 32 µg/mL (≈ 20.5 to 40.9 µM)
- MIC [4]: > 64 µg/mL
- MIC [5]: 16 to 32 µg/mL (≈ 20.5 to 40.9 µM)
- IC50 [6]: > 250 µM
- MIC [7]: 16 to 32 µg/mL (≈ 20.5 to 40.9 µM)
- MIC [8]: 16 to 32 µg/mL (≈ 20.5 to 40.9 µM)

Structure (SMILES): O=C(NCCCS(=O)(=O)N1CCN(C(=O)NC(C(=O)N[C@H]2Cc3ccc(F)c(C(=O)O)c3OB2O)c2cc(F)c(O)c(O)c2Cl)C1=O)Nc1ccncc1 (stereo partly drawn) [Example 291, (3R)-3-(2-(2-chloro-5-fluoro-3,4-dihydroxyphenyl)-2-(2-oxo-3-((3-(3-(pyridin-4-yl)ureido)propyl)sulfonyl)imidazolidine-1-carboxamido)acetamido)-7-fluoro-2-hydroxy-3,4-dihydro-2H-benzo[e][1,2]oxaborinine-8-carboxylic acid]
- MIC [1]: 4 to 8 µg/mL (≈ 5.03 to 10.1 µM)
- MIC [2]: 16 to 32 µg/mL (≈ 20.1 to 40.2 µM)
- MIC [3]: 16 to 32 µg/mL (≈ 20.1 to 40.2 µM)
- MIC [4]: > 64 µg/mL
- MIC [5]: 16 to 32 µg/mL (≈ 20.1 to 40.2 µM)
- IC50 [6]: > 250 µM
- MIC [7]: 16 to 32 µg/mL (≈ 20.1 to 40.2 µM)
- MIC [8]: 16 to 32 µg/mL (≈ 20.1 to 40.2 µM)
